Drawing on patent US9085576B2 (AMGEN INC., priority 2013, dated 2015), this text covers IC50 for nine compounds.

Test [1] concerns the target Beta Secretase enzyme (BACE) (Homo sapiens (Human), UniProt P56817). Put plainly: In vitro enzymatic BACE FRET assay. Type of test: biochemical. Particulars: read-out: BACE1 Enzyme assay IC50.
A further test addresses Cathepsin D (Cat D) (Homo sapiens (Human), UniProt P07339). Description: In vitro enzymatic Cathepsin D (Cat D) FRET assay. It is filed as biochemical. Particulars: read-out: CatD IC50.
For a further test, the target named is BACE (Homo sapiens (Human), UniProt P56817). Description: In vitro BACE cell-based assay (Aβ40 in conditioned medium, sandwich ELISA). (An ELISA detects its analyte on a solid surface through an enzyme-linked reagent.)
BACE, sequence (P56817 46-501, species assumed): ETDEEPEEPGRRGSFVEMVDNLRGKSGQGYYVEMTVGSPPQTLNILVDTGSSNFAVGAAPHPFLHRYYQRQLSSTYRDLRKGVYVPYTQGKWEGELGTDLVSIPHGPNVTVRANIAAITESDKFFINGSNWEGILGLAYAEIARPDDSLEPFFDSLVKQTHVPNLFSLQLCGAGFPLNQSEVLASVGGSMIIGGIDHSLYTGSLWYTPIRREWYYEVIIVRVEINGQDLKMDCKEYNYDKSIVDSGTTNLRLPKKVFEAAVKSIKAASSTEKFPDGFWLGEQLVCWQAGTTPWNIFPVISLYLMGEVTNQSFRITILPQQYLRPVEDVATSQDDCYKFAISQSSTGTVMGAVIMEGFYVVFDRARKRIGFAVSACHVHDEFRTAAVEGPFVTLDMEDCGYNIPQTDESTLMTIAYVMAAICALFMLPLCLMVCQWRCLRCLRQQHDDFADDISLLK

By IC50 is commonly meant the point on the concentration scale where inhibition reaches its midpoint.

A value given as a limit tells only on which side of the number the result lay.

Cathepsin D (Cat D), sequence (P07339 65-412, species assumed): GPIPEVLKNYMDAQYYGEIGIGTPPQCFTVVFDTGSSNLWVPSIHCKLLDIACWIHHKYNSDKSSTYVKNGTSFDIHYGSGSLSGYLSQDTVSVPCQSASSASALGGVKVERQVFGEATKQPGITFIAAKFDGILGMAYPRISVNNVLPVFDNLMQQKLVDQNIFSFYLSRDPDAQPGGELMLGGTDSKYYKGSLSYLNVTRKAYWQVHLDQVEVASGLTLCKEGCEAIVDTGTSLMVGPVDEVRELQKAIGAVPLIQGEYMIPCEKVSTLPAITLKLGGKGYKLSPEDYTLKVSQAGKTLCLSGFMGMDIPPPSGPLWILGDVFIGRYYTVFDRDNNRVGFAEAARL
Beta Secretase enzyme (BACE), sequence (P56817 46-501): as the sequence (P56817 46-501, species assumed) above

In the case of `NC1=N[C@](CF)(c2cc(NC(=O)c3nn(C(F)F)cc3Cl)cnc2F)[C@H]2C[C@H]2O1` [Example 207, N-(5-((1R,5S,6R)-3-amino-5-(fluoromethyl)-2-oxa-4-azabicyclo[4.1.0]hept-3-en-5-yl)-6-fluoropyridin-3-yl)-4-chloro-1-(difluoromethyl)-1H-pyrazole-3-carboxamide], the half-inhibitory concentration (IC50) is 57.8 nM in test [1], 370 µM at Cathepsin D (Cat D) and 0.0176 µM on BACE.
The corresponding values for `NC1=N[C@@](c2cc(NC(=O)c3ncc(Cl)cc3Cl)ccc2Cl)(C(F)F)[C@H]2C[C@H]2O1` [Example 211, N-(3-((1R,5S,6R)-3-amino-5-(difluoromethyl)-2-oxa-4-azabicyclo[4.1.0]hept-3-en-5-yl)-4-chlorophenyl)-3,5-dichloropicolinamide] are 12.6 nM, over 400 µM and 0.0147 µM.
On to `Cc1cc(OC(F)F)cnc1C(=O)Nc1ccc(Cl)c([C@@]2(C(F)F)N=C(N)O[C@@H]3C[C@@H]32)c1` [Example 212, N-(3-((1R,5S,6R)-3-amino-5-(difluoromethyl)-2-oxa-4-azabicyclo[4.1.0]hept-3-en-5-yl)-4-chlorophenyl)-5-(difluoromethoxy)-3-methylpicolinamide], for which the figures for the IC50 (in test [1]; on Cathepsin D (Cat D); at BACE) were 46.9 nM, 928 µM and 0.0385 µM, respectively.
The corresponding values for `Cc1cc(OC(F)F)cnc1C(=O)Nc1ccc(Cl)c([C@]2(C(F)F)N=C(N)O[C@H]3C[C@H]32)c1` [Example 213, N-(3-((1S,5R,6S)-3-amino-5-(difluoromethyl)-2-oxa-4-azabicyclo[4.1.0]hept-3-en-5-yl)-4-chlorophenyl)-5-(difluoromethoxy)-3-methylpicolinamide] are 2420 nM, 1130 µM and 1.31 µM.
The corresponding values for `NC1=N[C@@](c2cc(NC(=O)c3ccc(Br)cn3)ccc2Cl)(C(F)F)[C@H]2C[C@H]2O1` [Example 214, N-(3-((1R,5S,6R)-3-amino-5-(difluoromethyl)-2-oxa-4-azabicyclo[4.1.0]hept-3-en-5-yl)-4-chlorophenyl)-5-bromopicolinamide] are 9.3 nM, 459 µM and 0.0132 µM.
In the same order, the values of `CC#CCOc1cnc(C(=O)Nc2ccc(Cl)c([C@@]3(C(F)F)N=C(N)O[C@@H]4C[C@@H]43)c2)cn1` [Example 215, N-(3-((1R,5S,6R)-3-amino-5-(difluoromethyl)-2-oxa-4-azabicyclo[4.1.0]hept-3-en-5-yl)-4-chlorophenyl)-5-(but-2-yn-1-yloxy)pyrazine-2-carboxamide] are 1.7 nM, 1930 µM and 0.0043 µM.
As for `Cc1cc(C(F)(F)F)cnc1C(=O)Nc1ccc(Cl)c([C@@]2(C(F)F)N=C(N)O[C@@H]3C[C@@H]32)c1` [Example 217, N-(3-((1R,5S,6R)-3-amino-5-(difluoromethyl)-2-oxa-4-azabicyclo[4.1.0]hept-3-en-5-yl)-4-chlorophenyl)-3-methyl-5-(trifluoromethyl) picolinamide], the 50% inhibitory concentration (IC50) in test [1] is 15.1 nM; on Cathepsin D (Cat D) it was 206 µM; at BACE it was 0.0116 µM.
The corresponding values for `C#CCOc1cnc(C(=O)Nc2ccc(Cl)c([C@@]3(C(F)F)N=C(N)O[C@@H]4C[C@@H]43)c2)cn1` [Example 221, N-(3-((1R,5S,6R)-3-amino-5-(difluoromethyl)-2-oxa-4-azabicyclo[4.1.0]hept-3-en-5-yl)-4-chlorophenyl)-5-(prop-2-yn-1-yloxy)pyrazine-2-carboxamide] are 2.7 nM, 51.1 µM and 0.0033 µM.
For `Cc1cc(C#N)cnc1C(=O)Nc1ccc(Cl)c([C@@]2(C(F)F)N=C(N)O[C@@H]3C[C@@H]32)c1` [Example 223, N-(3-((1R,5S,6R)-3-amino-5-(difluoromethyl)-2-oxa-4-azabicyclo[4.1.0]hept-3-en-5-yl)-4-chlorophenyl)-5-cyano-3-methylpicolinamide], the IC50 came out at 18.4 nM in test [1], 541 µM on Cathepsin D (Cat D) and 0.0314 µM at BACE.
